“And” between values parts separate entries of the source, which are not always exact repeats. Equal values may be shown once.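 Where inhibition never reached the appropriate level, the endpoint shown equals the highest concentration tested. Otherwise, values were interpolated linearly from a five-concentration, 48-hour dose response in 96-well plates. Here, GI50 denotes the concentration required for 50% inhibition of growth. At the TGI there is no net growth.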
Key:
Experiment in all cases: inhibition of tumour cell growth, NCI panel, 48 h
MDA-MB-435 = test system: MDA-MB-435
SW-620 colon = test system: SW-620 colon
HCC-2998 colon = test system: HCC-2998 colon
786-0 renal = test system: 786-0 renal
OVCAR-3 ovarian = test system: OVCAR-3 ovarian
NCI-H226 lung = test system: NCI-H226 lung
M14 melanoma = test system: M14 melanoma
OVCAR-8 ovarian = test system: OVCAR-8 ovarian
RPMI-8226 leukemia = test system: RPMI-8226 leukemia
T-47D breast = test system: T-47D breast
NCI-H522 lung = test system: NCI-H522 lung
CAKI-1 renal = test system: CAKI-1 renal

| Structure (SMILES) | TGI (MDA-MB-435) [µM] | TGI (SW-620 colon) [µM] | TGI (HCC-2998 colon) [µM] | TGI (786-0 renal) [µM] | TGI (OVCAR-3 ovarian) [µM] | TGI (NCI-H226 lung) | TGI (M14 melanoma) [µM] | TGI (OVCAR-8 ovarian) [µM] | TGI (RPMI-8226 leukemia) [µM] | TGI (T-47D breast) [µM] | GI50 (MDA-MB-435) [µM] | GI50 (SW-620 colon) [µM] | TGI (NCI-H522 lung) [µM] | TGI (CAKI-1 renal) [µM] | GI50 (OVCAR-3 ovarian) [µM] | GI50 (NCI-H226 lung) [µM] | GI50 (M14 melanoma) [µM] | GI50 (RPMI-8226 leukemia) [µM] |
| --- | --- | --- | --- | --- | --- | --- | --- | --- | --- | --- | --- | --- | --- | --- | --- | --- | --- | --- |
| c1ccc([P+](CCNCCNCC[P+](c2ccccc2)(c2ccccc2)c2ccccc2)(c2ccccc2)c2ccccc2)cc1 | > 100 | > 100 | > 100 | > 100 | > 100 | > 100 µM | > 100 | > 100 | > 100 | > 100 |  |  |  |  |  |  |  |  |
| CCCCCCCCCC[C@@H](O)[C@H]1CC[C@H]([C@H]2CC[C@H]([C@H](O)CCCCCCCCCC[C@@H]3CC(CC(C)=O)C(=O)O3)O2)O1 (some centres not stated) | > 50 | > 50 | > 50 | > 50 | > 50 | 6.56 µM and > 50 µM | > 50 | > 50 | > 50 | > 50 | 1.86 | 5.19 | > 50 | > 50 | 4.48 | 1.43 | 5.29 | 1.39 |
| CCOC(=O)c1cc(C2(O)CCN(Cc3ccccc3)C2=O)c(-c2cc(C)no2)[nH]1 (configuration not stated) | > 100 | > 100 | > 100 | > 100 | > 100 | > 100 µM | > 100 | > 100 | > 100 | 74.8 |  |  | 43.3 | 74.3 |  |  |  |  |
| Cc1ccc(-c2cc(N)n(-c3nc4c([nH]3)c(=O)n(C)c(=O)n4C)n2)cc1 | > 100 |  | > 100 | 13.6 | 18.9 | 22.8 µM | 24.4 | 15.3 | > 100 | 23.6 |  |  | > 100 | 13.4 |  |  |  |  |
| c1cc2nnc1SCCSCCSc1ccc(nn1)SCCSCCS2 | > 100 | > 100 | > 100 | > 100 | > 100 | > 100 µM | > 100 | > 100 | > 100 | > 100 |  |  | > 100 | > 100 |  |  |  |  |
| CCOC(=O)c1cc2c([N+](=O)[O-])c(NC(C)=O)ccc2s1 | > 100 | > 100 | > 100 | > 100 | > 100 | 54.8 µM | > 100 | > 100 | > 100 | 61.2 |  |  | > 100 | > 100 |  |  |  |  |
| COC(=O)C1(Cc2ccccc2)Cc2cc3c(cc2C1=O)CCC3 (configuration not stated) | 36.9 | > 100 | 9.64 | > 100 | > 100 | 92.6 µM | 57.6 | > 100 | 52.5 | 66.6 |  |  | 64.2 |  |  |  |  |  |
| Cc1sc2nc3n(c(=O)c2c1C)N=CN(c1ccccc1)C3 | > 100 | > 100 | > 100 | 46.5 | > 100 | > 100 µM | > 100 | > 100 | > 100 | > 100 |  |  | > 100 | > 100 |  |  |  |  |
| O=c1[nH]cnc2c(C3OC(CO)C(O)C3O)c[nH]c12 (configuration not stated) | > 100 | > 100 | > 100 | > 100 | > 100 | > 100 µM | > 100 | > 100 | > 100 | > 100 |  |  | > 100 | > 100 |  |  |  |  |
| CC[C@@H]1CC[C@@H]2[C@H](CC[C@]3(C)[C@@H](O)CC[C@@H]23)[C@H]1C(=O)O | > 100 | > 100 | > 100 | > 100 | > 100 | > 100 µM | > 100 | > 100 | > 100 | > 100 |  |  | > 100 | > 100 |  |  |  |  |
| CCN(CC)CCOC(c1cc(OC)ccc1OC)c1ccc2n1-c1ccccc1OC2 (configuration not stated) | 22.2 | 21.1 | 20.9 | 36.9 | 31 | 14.6 µM | 33.2 | 25.9 | 16 | 51.3 |  |  | 30 | 30 |  |  |  |  |
| CCOC(=O)c1sc2nc(SC)nc3c2c1N=CN3c1ccc(Br)cc1 | > 100 | > 100 | > 100 | > 100 | > 100 | > 100 µM | > 100 | > 100 | > 100 | > 100 |  |  | > 100 | > 100 |  |  |  |  |
| COc1ccc2c(c1)c1c(n2CCN2CCOCC2)-c2ccccc2CC1 | > 100 | > 100 | 41.2 | 92.1 | > 100 | 48.9 µM | > 100 | > 100 | 64.2 | > 100 |  |  | > 100 | > 100 |  |  |  |  |
| Cc1ccc(S(=O)(=O)N2CCN3C(=O)c4ccccc4C32c2ccc(F)cc2)cc1 (configuration not stated) | > 100 | > 100 | > 100 | > 100 | > 100 | > 100 µM | > 100 | > 100 | 83.3 | > 100 |  |  | > 100 | > 100 |  |  |  |  |
| Cc1cc2c(c(C(=O)NCCC(=O)O)c1)Oc1c(cc(C)cc1C(=O)NCCC(=O)O)S2 | > 100 | > 100 | > 100 | > 100 | > 100 | > 100 µM | > 100 | > 100 | > 100 | > 100 |  |  | > 100 | > 100 |  |  |  |  |
| Cc1ccc2c(c1C)CC1(Cc3c(ccc4c3CCC4)C1=O)C2=O (configuration not stated) | > 100 | > 100 | > 100 | > 100 | > 100 | > 100 µM | > 100 | > 100 | > 100 | > 100 |  |  | > 100 | > 100 |  |  |  |  |
| O=C1CC2C=CC(O)C(C1)C2 (configuration not stated) | > 100 | > 100 | > 100 | > 100 | > 100 | > 100 µM | > 100 | > 100 | > 100 | > 100 |  |  | > 100 |  |  |  |  |  |
| Cc1cc(-c2nc3ccccc3s2)ccc1NS(=O)(=O)O | > 100 | > 100 | > 100 | > 100 | > 100 | > 100 µM | > 100 | > 100 | > 10.5 | > 100 |  |  | > 67.3 | > 18.3 |  |  |  |  |
